For 18 molecules, TGI and GI50 results are on record in PubChem BioAssay (NCI).

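Results reflect a 48-hour exposure of cells in 96-well plates to compound at five concentrations. The concentration for 50% growth inhibition is given as GI50. TGI denotes the concentration required for complete inhibition of growth.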 A value given as a limit tells only on which side of the number the result lay.

The first experiment relates to SF-295 CNS. The experiment can be described thus: NCI tumour cell line growth inhibition, 48 h.
Consider `CN(C)C(=O)OC(Cn1cncn1)c1ccc(Cl)cc1Cl` (centres undefined), for which the TGI was more than 100 µM.

For the molecule `CN(C)CCNc1c2c(c(NCCN(C)C)c3[nH]ccc13)C(=O)c1ccccc1C2=O`, the GI50 is 0.693 µM and the TGI came out at 3.25 µM.

In turn, `CCOC(=O)COc1ccccc1/C=C1\CCC(CN(C)C)C1=O` (centres undefined) showed a TGI of 35.5 µM.

For `Cc1c(C(=O)C/C(=N\O)C(=O)Nc2cc(Cl)c(Cl)cc2Cl)[n+](=O)c2ccccc2n1[O-]`, the TGI came out at 53.5 µM.

As for `CC1OC(O[C@@H]2OC=C(C=O)[C@@]3(O)CC[C@H](C)[C@@H]23)C(O)C(O)C1O` (some centres undefined), the TGI is more than 100 µM.

In the case of `CCOC(=O)c1cc(NS(=O)(=O)c2ccccc2)cc(C(=O)OCC)c1`, the GI50 is more than 100 µM and the TGI is more than 100 µM.

As to `Cn1cccc1-c1cc(-c2cccs2)nc(N)c1C#N`, the GI50 was more than 100 µM and the TGI was more than 100 µM.

Consider `O=C(N/C(=C\c1ccc2c(c1)OCO2)c1nc2ccccc2[nH]1)c1ccccc1`, for which the TGI is more than 100 µM.

For the molecule `C=CCOc1cccc(/C=C2\SC(=Nc3ccc(O)cc3)NC2=O)c1`, the GI50 was 0.505 µM and the TGI turned out to be 16.6 µM.

The molecule `Cc1[nH]ccc2c1[nH]c1cc(=O)ccc12` yielded a TGI of more than 100 µM.

Regarding `NCCOCCOCCNc1nc(Cc2ccccc2)nc(NCCCN2CCCC2=O)n1`, the GI50 was more than 100 µM and the TGI was more than 100 µM.

Turning to `COc1ccc(-c2c3c(N)nc(-c4ccncc4)nc3nc3c2c(C)nn3-c2ccccc2)cc1`, the GI50 is 24.7 µM and the TGI was more than 100 µM.

On to `COc1cccc(-n2ncc3c(N/N=C/c4ccc(C(=O)NCCN(C)C)cc4)ncnc32)c1`, for which the GI50 is 3.85 µM and the TGI stood at 7.93 µM.

`COc1ccc(-c2nc3sc4c(c3c(=O)[nH]2)CCCCCC4)cc1`: the GI50 was 0.989 µM and the TGI was more than 33.2 µM.

Regarding `CC1(C)CC(=O)c2c(C(F)(F)F)nn(-c3ccc(C(N)=O)c(NC4CCC(OC(=O)CN)CC4)c3)c2C1` (centres undefined), the GI50 was 0.0593 µM and the TGI is more than 100 µM.

For `O=C1CC(c2ccc(O)cc2)C2(O1)C(=O)OC(C(O)CO)C2O` (centres undefined), the TGI was more than 100 µM.

Take `Cc1ccccc1[P+](Cc1ccccc1)(c1ccccc1)c1ccccc1`: the GI50 is 1.75 µM and the TGI came to 5.28 µM.

Turning to `O=C(NCCCCCCNC(=O)n1cc(F)c(=O)[nH]c1=O)NCCCOCCOCCOCCOCCOCCOCCOCCOCCOCCOCCOCCOCCOCCOCCOCCOCCOCCOCCOCCOCCOCCCNC(=O)C(O)C(O)C(O)C(O)CO` (centres undefined), the TGI was more than 100 µM.

A further experiment relates to MOLT-4 leukemia. The experiment can be described thus: NCI tumour cell line growth inhibition, 48 h.
With `CN(C)C(=O)OC(Cn1cncn1)c1ccc(Cl)cc1Cl` (centres undefined), the TGI was more than 100 µM.

For the molecule `CN(C)CCNc1c2c(c(NCCN(C)C)c3[nH]ccc13)C(=O)c1ccccc1C2=O`, the GI50 is 0.199 µM.

As for `CCOC(=O)COc1ccccc1/C=C1\CCC(CN(C)C)C1=O` (centres undefined), the TGI is 4.61 µM.

For `Cc1c(C(=O)C/C(=N\O)C(=O)Nc2cc(Cl)c(Cl)cc2Cl)[n+](=O)c2ccccc2n1[O-]`, the TGI was determined as 32.8 µM.

`CC1OC(O[C@@H]2OC=C(C=O)[C@@]3(O)CC[C@H](C)[C@@H]23)C(O)C(O)C1O` (some centres undefined) had a TGI of more than 100 µM.

As to `CCOC(=O)c1cc(NS(=O)(=O)c2ccccc2)cc(C(=O)OCC)c1`, the GI50 was more than 100 µM and the TGI was more than 100 µM.

For `Cn1cccc1-c1cc(-c2cccs2)nc(N)c1C#N`, the GI50 is more than 100 µM and the TGI was more than 100 µM.

As for `O=C(N/C(=C\c1ccc2c(c1)OCO2)c1nc2ccccc2[nH]1)c1ccccc1`, the TGI came to 56.9 µM.

Take `C=CCOc1cccc(/C=C2\SC(=Nc3ccc(O)cc3)NC2=O)c1`: the GI50 was 0.523 µM and the TGI is more than 23.8 µM.

With `Cc1[nH]ccc2c1[nH]c1cc(=O)ccc12`, the TGI is 85.9 µM.

As to `NCCOCCOCCNc1nc(Cc2ccccc2)nc(NCCCN2CCCC2=O)n1`, the GI50 is more than 100 µM and the TGI was more than 100 µM.

Turning to `COc1ccc(-c2c3c(N)nc(-c4ccncc4)nc3nc3c2c(C)nn3-c2ccccc2)cc1`, the GI50 is 8.58 µM and the TGI is more than 100 µM.

`COc1cccc(-n2ncc3c(N/N=C/c4ccc(C(=O)NCCN(C)C)cc4)ncnc32)c1`: the GI50 is 4.48 µM and the TGI is 11 µM.

Turning to `COc1ccc(-c2nc3sc4c(c3c(=O)[nH]2)CCCCCC4)cc1`, the GI50 was 31.6 µM and the TGI is more than 33.2 µM.

As to `CC1(C)CC(=O)c2c(C(F)(F)F)nn(-c3ccc(C(N)=O)c(NC4CCC(OC(=O)CN)CC4)c3)c2C1` (centres undefined), the GI50 is 0.0437 µM and the TGI came to 24.4 µM.

For `O=C1CC(c2ccc(O)cc2)C2(O1)C(=O)OC(C(O)CO)C2O` (centres undefined), the TGI was more than 100 µM.

`Cc1ccccc1[P+](Cc1ccccc1)(c1ccccc1)c1ccccc1`: the GI50 was 3.58 µM and the TGI is 17.6 µM.

`O=C(NCCCCCCNC(=O)n1cc(F)c(=O)[nH]c1=O)NCCCOCCOCCOCCOCCOCCOCCOCCOCCOCCOCCOCCOCCOCCOCCOCCOCCOCCOCCOCCOCCOCCCNC(=O)C(O)C(O)C(O)C(O)CO` (centres undefined) displayed a TGI of more than 100 µM.

In another experiment the test system is HOP-62 NSCLC. Put plainly: NCI tumour cell line growth inhibition, 48 h.
The molecule `CN(C)C(=O)OC(Cn1cncn1)c1ccc(Cl)cc1Cl` (centres undefined) came in with a TGI of more than 100 µM.

Turning to `CN(C)CCNc1c2c(c(NCCN(C)C)c3[nH]ccc13)C(=O)c1ccccc1C2=O`, the GI50 is 0.894 µM and the TGI came to 9.27 µM.

Take `CCOC(=O)COc1ccccc1/C=C1\CCC(CN(C)C)C1=O` (centres undefined): the TGI stood at 35.8 µM.

Consider `Cc1c(C(=O)C/C(=N\O)C(=O)Nc2cc(Cl)c(Cl)cc2Cl)[n+](=O)c2ccccc2n1[O-]`, for which the TGI is more than 100 µM.

As to `CC1OC(O[C@@H]2OC=C(C=O)[C@@]3(O)CC[C@H](C)[C@@H]23)C(O)C(O)C1O` (some centres undefined), the TGI was more than 100 µM.

Regarding `CCOC(=O)c1cc(NS(=O)(=O)c2ccccc2)cc(C(=O)OCC)c1`, the GI50 was more than 100 µM and the TGI is more than 100 µM.

In the case of `Cn1cccc1-c1cc(-c2cccs2)nc(N)c1C#N`, the GI50 is more than 100 µM and the TGI was more than 100 µM.

For `O=C(N/C(=C\c1ccc2c(c1)OCO2)c1nc2ccccc2[nH]1)c1ccccc1`, the TGI was more than 73.4 µM.

For the molecule `C=CCOc1cccc(/C=C2\SC(=Nc3ccc(O)cc3)NC2=O)c1`, the GI50 is 0.66 µM and the TGI came to 13.1 µM.

In turn, `Cc1[nH]ccc2c1[nH]c1cc(=O)ccc12` registered a TGI of more than 100 µM.
